Assay results from article PMC4032265 (PLoS ONE, 2014).
Like-named read-outs stand apart in the source and are kept apart here.

How the values were obtained:
[1] = biological target: 5HT7 serotonergic receptor (Homo sapiens, UniProt P34969); assay: PDSP radioligand binding, 5HT7; conditions: for inhibition at 10 µM: read-out: % inhibition at 10 µM; for Ki: full curve, n = 1
[2] = biological target: 5HT1E serotonergic receptor (Homo sapiens, UniProt P28566); assay: PDSP radioligand binding, 5HT1E; conditions: read-out: % inhibition at 10 µM
Chain of 5HT1E serotonergic receptor (P28566 whole entry): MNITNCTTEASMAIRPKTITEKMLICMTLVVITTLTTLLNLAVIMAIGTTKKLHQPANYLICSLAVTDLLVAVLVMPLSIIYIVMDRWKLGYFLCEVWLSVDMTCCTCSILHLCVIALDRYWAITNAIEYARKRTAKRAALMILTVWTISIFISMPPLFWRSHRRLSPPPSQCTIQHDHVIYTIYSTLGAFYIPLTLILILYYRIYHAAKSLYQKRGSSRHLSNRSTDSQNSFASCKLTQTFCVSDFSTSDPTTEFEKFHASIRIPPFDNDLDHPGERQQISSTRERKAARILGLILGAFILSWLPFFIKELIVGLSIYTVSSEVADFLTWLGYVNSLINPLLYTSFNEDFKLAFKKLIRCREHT

[3] = biological target: M3 muscarinic acetylcholine receptor (Homo sapiens, UniProt P20309); assay: PDSP radioligand binding, M3; conditions: read-out: % inhibition at 10 µM
Chain of M3 muscarinic acetylcholine receptor (P20309 whole entry): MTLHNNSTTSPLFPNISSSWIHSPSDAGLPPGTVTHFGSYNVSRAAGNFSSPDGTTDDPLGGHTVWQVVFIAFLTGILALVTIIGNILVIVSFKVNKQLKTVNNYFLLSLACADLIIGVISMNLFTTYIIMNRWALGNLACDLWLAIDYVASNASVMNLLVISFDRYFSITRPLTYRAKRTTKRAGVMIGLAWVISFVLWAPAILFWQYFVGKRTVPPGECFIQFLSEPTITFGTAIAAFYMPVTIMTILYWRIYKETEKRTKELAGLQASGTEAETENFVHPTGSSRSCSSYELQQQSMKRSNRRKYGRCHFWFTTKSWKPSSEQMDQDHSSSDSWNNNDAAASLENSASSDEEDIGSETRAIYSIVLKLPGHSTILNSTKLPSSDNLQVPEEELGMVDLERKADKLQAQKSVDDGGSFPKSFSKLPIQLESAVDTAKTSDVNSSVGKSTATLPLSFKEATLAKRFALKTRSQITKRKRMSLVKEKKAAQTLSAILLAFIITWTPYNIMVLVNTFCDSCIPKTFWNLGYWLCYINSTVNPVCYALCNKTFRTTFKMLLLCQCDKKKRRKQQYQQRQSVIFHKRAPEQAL

β2 adrenergic receptor = β2 adrenergic receptor (Homo sapiens, UniProt P07550); assay: PDSP radioligand binding, β2; conditions: read-out: % inhibition at 10 µM
Chain of β2 adrenergic receptor (P07550 whole entry): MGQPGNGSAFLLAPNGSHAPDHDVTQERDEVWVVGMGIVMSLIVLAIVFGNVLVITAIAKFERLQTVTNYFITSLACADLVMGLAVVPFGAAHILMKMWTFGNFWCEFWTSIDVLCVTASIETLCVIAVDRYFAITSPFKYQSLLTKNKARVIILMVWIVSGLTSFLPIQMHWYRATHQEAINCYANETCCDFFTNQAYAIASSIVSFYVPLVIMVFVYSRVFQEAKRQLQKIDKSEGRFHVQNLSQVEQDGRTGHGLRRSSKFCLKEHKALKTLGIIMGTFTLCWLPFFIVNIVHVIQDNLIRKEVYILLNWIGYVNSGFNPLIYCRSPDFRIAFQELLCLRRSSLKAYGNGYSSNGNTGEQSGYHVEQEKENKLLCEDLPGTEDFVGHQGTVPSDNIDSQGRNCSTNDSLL

[4] = biological target: T1, M1 muscarinic acetylcholine receptor (Homo sapiens, UniProt P11229); assay: PDSP radioligand binding, M1; conditions: read-out: % inhibition at 10 µM
T1 sequence (P11229 1-460): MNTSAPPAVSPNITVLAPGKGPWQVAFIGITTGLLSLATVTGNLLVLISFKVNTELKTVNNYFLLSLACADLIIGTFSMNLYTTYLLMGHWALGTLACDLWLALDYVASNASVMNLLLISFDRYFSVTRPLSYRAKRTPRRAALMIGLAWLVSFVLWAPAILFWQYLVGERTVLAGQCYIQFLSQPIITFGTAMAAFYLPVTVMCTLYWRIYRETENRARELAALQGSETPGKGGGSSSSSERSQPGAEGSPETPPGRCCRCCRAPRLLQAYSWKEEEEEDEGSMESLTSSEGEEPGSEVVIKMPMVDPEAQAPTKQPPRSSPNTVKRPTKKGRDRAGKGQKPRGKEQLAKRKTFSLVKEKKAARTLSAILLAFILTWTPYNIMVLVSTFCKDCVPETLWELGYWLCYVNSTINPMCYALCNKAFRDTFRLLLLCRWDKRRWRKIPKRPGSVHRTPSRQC

[5] = biological target: T2, M5 muscarinic acetylcholine receptor (Homo sapiens, UniProt P08912); assay: PDSP radioligand binding, M5; conditions: read-out: % inhibition at 10 µM
T2 sequence (P08912 1-532): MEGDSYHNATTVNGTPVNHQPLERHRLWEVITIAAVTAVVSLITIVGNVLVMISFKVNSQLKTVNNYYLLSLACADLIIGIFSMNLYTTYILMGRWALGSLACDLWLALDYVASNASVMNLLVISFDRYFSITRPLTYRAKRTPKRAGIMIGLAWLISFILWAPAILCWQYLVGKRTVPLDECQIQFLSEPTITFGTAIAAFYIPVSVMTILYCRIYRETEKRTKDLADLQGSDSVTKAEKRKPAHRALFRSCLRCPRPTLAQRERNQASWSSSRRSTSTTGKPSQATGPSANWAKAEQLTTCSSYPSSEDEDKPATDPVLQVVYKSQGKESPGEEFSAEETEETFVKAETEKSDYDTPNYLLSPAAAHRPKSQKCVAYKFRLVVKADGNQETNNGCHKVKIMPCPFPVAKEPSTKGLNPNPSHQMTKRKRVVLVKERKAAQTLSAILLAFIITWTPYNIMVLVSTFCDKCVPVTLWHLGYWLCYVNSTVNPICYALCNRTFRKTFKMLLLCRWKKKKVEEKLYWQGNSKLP

[6] = biological target: H3 histaminergic receptor (Homo sapiens, UniProt Q9Y5N1); assay: PDSP radioligand binding, H3; conditions: read-out: % inhibition at 10 µM
Chain of H3 histaminergic receptor (Q9Y5N1 whole entry): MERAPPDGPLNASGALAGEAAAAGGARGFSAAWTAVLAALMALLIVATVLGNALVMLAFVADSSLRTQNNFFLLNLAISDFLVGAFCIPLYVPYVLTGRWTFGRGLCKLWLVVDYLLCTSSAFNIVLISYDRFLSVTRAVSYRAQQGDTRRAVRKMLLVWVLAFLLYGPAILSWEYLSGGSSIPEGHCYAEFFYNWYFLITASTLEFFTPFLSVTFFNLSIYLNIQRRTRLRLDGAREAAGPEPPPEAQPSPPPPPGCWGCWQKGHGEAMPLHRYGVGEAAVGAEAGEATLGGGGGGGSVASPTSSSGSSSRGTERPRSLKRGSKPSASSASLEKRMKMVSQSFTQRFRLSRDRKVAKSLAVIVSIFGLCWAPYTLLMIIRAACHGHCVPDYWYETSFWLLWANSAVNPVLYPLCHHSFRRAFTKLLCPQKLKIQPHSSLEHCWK

α2A adrenergic receptor = biological target: T3, α2A adrenergic receptor (Homo sapiens, UniProt P08913); assay: PDSP radioligand binding, α2A; conditions: for Ki: full concentration-response curves, n = 3-6 unless noted; for inhibition at 10 µM: read-out: % inhibition at 10 µM
T3 sequence (P08913 1-465): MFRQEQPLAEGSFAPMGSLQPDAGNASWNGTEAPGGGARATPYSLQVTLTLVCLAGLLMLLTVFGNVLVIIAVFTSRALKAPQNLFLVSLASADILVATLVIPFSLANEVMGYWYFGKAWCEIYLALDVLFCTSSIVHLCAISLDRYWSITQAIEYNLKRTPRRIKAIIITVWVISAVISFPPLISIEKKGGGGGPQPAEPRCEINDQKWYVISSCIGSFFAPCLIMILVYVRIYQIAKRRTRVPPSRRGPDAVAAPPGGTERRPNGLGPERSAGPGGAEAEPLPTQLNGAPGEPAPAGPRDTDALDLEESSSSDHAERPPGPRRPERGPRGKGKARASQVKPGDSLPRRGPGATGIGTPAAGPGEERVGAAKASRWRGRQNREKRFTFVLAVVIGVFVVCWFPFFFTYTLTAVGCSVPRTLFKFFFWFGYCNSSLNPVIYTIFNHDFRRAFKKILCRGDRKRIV

σ1 receptor = σ1 receptor (Cavia porcellus, UniProt Q60492); assay: PDSP radioligand binding, σ1; conditions: read-out: % inhibition at 10 µM
Chain of σ1 receptor (Q60492 whole entry): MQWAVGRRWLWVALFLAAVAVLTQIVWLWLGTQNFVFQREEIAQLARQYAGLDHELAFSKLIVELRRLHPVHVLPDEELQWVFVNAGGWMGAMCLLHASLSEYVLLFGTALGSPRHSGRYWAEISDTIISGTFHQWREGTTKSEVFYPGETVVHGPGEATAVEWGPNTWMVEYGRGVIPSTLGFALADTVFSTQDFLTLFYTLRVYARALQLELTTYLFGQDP

[7] = biological target: T4, 5HT1A serotonergic receptor (Homo sapiens, UniProt P08908); assay: PDSP radioligand binding, 5HT1A; conditions: for inhibition at 10 µM: read-out: % inhibition at 10 µM
T4 sequence (P08908 1-422): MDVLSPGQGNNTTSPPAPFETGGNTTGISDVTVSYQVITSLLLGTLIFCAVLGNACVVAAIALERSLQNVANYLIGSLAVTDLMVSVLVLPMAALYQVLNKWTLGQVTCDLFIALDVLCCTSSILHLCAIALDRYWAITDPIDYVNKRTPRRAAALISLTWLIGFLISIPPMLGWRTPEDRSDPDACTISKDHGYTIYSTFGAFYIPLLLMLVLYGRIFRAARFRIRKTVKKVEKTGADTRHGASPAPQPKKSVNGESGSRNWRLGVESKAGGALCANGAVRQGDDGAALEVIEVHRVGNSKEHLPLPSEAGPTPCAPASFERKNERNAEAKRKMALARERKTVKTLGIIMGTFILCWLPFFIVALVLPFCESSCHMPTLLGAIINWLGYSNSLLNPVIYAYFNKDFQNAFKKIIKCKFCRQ

α1B adrenergic receptor = biological target: T5, α1B adrenergic receptor (Homo sapiens, UniProt P35368); assay: PDSP radioligand binding, α1B; conditions: read-out: % inhibition at 10 µM
T5 sequence (P35368 1-520): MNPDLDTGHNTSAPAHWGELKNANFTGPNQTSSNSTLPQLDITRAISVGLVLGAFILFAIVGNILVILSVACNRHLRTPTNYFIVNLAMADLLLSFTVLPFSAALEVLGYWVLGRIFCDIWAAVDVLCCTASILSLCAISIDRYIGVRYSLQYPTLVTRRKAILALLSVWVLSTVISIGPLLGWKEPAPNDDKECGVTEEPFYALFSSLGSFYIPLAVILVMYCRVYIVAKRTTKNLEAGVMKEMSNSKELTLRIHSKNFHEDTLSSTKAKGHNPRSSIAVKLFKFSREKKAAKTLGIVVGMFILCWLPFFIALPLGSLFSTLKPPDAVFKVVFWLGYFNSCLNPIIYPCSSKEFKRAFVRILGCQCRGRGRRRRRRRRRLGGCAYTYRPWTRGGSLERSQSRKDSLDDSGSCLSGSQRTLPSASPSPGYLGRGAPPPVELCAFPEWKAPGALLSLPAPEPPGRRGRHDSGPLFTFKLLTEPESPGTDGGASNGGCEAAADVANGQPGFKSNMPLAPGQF

Chain of 5HT7 serotonergic receptor (P34969 whole entry): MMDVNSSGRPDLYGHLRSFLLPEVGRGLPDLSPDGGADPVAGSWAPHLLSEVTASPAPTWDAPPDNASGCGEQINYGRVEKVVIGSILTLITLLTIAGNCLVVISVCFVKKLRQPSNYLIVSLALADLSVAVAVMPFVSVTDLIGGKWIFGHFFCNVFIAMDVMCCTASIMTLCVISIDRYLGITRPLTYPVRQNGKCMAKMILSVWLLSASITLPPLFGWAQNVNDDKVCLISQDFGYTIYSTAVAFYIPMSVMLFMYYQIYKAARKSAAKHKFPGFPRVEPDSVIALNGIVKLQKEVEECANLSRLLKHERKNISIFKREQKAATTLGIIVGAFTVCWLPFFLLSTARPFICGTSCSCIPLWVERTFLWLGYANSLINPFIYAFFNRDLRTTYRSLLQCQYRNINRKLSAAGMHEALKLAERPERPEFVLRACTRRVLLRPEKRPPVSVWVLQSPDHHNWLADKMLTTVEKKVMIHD

Row | Structure (SMILES) | Ki (α2A adrenergic receptor) | inhibition at 10 µM ([1]; single concentration 10 µM) | inhibition at 10 µM ([2]; single concentration 10 µM) | inhibition at 10 µM ([3]; single concentration 10 µM) | inhibition at 10 µM (β2 adrenergic receptor; single concentration 10 µM) | inhibition at 10 µM ([4]; single concentration 10 µM) | inhibition at 10 µM ([5]; single concentration 10 µM) | inhibition at 10 µM ([6]; single concentration 10 µM) | inhibition at 10 µM (α2A adrenergic receptor; single concentration 10 µM) | inhibition at 10 µM (σ1 receptor; single concentration 10 µM) | inhibition at 10 µM ([7]; single concentration 10 µM) | inhibition at 10 µM (α1B adrenergic receptor; single concentration 10 µM) | further results
1 | CNC(=O)[C@@]12C[C@@H]1[C@@H](n1cnc3c(NCc4cccc(Cl)c4)nc(C#Cc4ccc(F)c(F)c4)nc31)[C@H](O)[C@@H]2O [Compound 1] | 4.77 ± 1.43 µM | – | – | – | – | – | – | – | – | – | – | – | inhibition at 10 µM [1]: 5%; inhibition at 10 µM [2]: 12%; inhibition at 10 µM [3]: 2%; inhibition at 10 µM (β2 adrenergic receptor): 0%; inhibition at 10 µM [4]: 9%; inhibition at 10 µM [5]: 2%; inhibition at 10 µM [6]: 8%; inhibition at 10 µM (α2A adrenergic receptor): 19%; inhibition at 10 µM (σ1 receptor): 0%; Ki [7]: 7.62 µM; inhibition at 10 µM [7]: 26%; inhibition at 10 µM (α1B adrenergic receptor): 44%
2 | CNC(=O)[C@@]12C[C@@H]1[C@@H](n1cnc3c(NCc4cccc(Cl)c4)nc(C#Cc4ccc(F)cc4)nc31)[C@H](O)[C@@H]2O [Compound 2] | – | 6% | 0% | 6% | 0% | 12% | 9% | 0% | 6% | 2% | 5% | 1% | –
3 | CNC(=O)[C@@]12C[C@@H]1[C@@H](n1cnc3c(NCc4cccc(Cl)c4)nc(C#Cc4ccccc4Cl)nc31)[C@H](O)[C@@H]2O [Compound 3] | – | 8% | 0% | 5% | 0% | 0% | 9% | 0% | 22% | 33% | 6% | 7% | –
4 | CNC(=O)[C@@]12C[C@@H]1[C@@H](n1cnc3c(NCc4cccc(Cl)c4)nc(Cl)nc31)[C@H](O)[C@@H]2O [Compound 4] | – | 40 ± 7% | 0% | 1% | 2% | 0% | 1% | 0% | 26% | 2% | 29% | 30% | Ki [1]: 7.73 µM
5 | CNC(=O)[C@@]12C[C@@H]1[C@@H](n1cnc3c(NC)nc(C#Cc4ccc(F)c(F)c4)nc31)[C@H](O)[C@@H]2O [Compound 5] | – | 0% | 9% | 5% | 2% | 0% | 4% | 0% | 0% | 10% | 10% | 11% | –
6 | O[C@@H]1[C@H](O)[C@@H]2C[C@@H]2[C@H]1n1cnc2c(NCc3cccc(Cl)c3)nc(C#Cc3ccc(F)c(F)c3)nc21 [Compound 6] | – | 0% | 0% | 0% | 0% | 3% | 3% | 0% | 14% | 16% | 9% | 19% | –
7 | O[C@@H]1[C@H](O)[C@@H]2C[C@@H]2[C@H]1n1cnc2c(NCc3cccc(Cl)c3)ncnc21 [Compound 7] | – | 35 ± 2% | 0% | 11% | 53% | 24% | 15% | 0% | 26% | 29% | 28% | 32% | Ki [1]: 3.92 µM
8 | Fc1ccc(C#Cc2nc(NCc3cccc(Cl)c3)c3nc[nH]c3n2)cc1F [Compound 8] | 2.19 ± 0.27 µM | 0% | 0% | 10% | 0% | 27% | 2% | 0% | 34% | 0% | 11% | 30% | –
9 | Clc1cccc(CNc2nc(Cl)nc3[nH]cnc23)c1 [Compound 9] | 3 ± 0.51 µM | 12% | 0% | 0% | 0% | 12% | 0% | 3% | 58% | 0% | 12% | 0% | –
10 | O[C@@H]1[C@H](O)[C@@H]2C[C@@H]2[C@H]1n1cnc2c(NC(C3CC3)C3CC3)nc(Cl)nc21 [Compound 10] | – | 0% | 3% | 0% | 2% | 0% | 0% | 8% | 17% | 9% | 4% | 8% | –
